In brackets after ≈: the same amount, converted by molar mass. One block for each compound: values may come before it.
What was measured:
[1] = tested on: murine T cells (C57BL/6 splenocytes as responder cells); test: Murine mixed lymphocyte reaction (MLR), T-cell blast formation by tritium-labeled thymidine uptake; format: cell-based; settings: Mus musculus, 96 h culture + 7 h labeling, read-out: IC50 (MLR, inhibition of tritium-labeled thymidine uptake)
[2] = Cytotoxity test, 3H-thymidine uptake, HEK-297; format: cell-based; settings: human, hek-297 cells; HEK-297, 96 h; read-out: IC50 (cytotoxity)
Protocol: (§1) After culturing for 96 hours, ^3 H-thymidine (0.5 μCi/well) was added into each well. The microtiter plate was incubated for 4 hours, followed by trypsin treatment of the cell lines excluding YAC-1, and the resulting cells were recovered on glass fiber filters to measure the radioactivity incorporated into the cells by means of a liquid scintillation counter. From the radioactivity (c) of a well with no addition of any sample and the radioactivity (t) of each of the wells with addition of the individual samples, the growth inhibition rate was determined by the formula […] (%). IC50 was calculated from the results.

[3] = Cytotoxity test, 3H-thymidine uptake, Cos-1; format: cell-based; settings: monkey, cos-1 cells; Cos-1, 96 h; read-out: IC50 (cytotoxity)
Protocol: as §1

[4] = Cytotoxity test, 3H-thymidine uptake, YAC-1; format: cell-based; settings: mouse, yac-1 cells; YAC-1, 96 h; read-out: IC50 (cytotoxity)
Protocol: as §1

[5] = Cytotoxity test, 3H-thymidine uptake, HeLa; format: cell-based; settings: human, hela cells, read-out: IC50 (cytotoxity)
Protocol: as §1

[6] = tested on: cultured cell lines (HEK-297, Cos-1, YAC-1, HeLa); test: Cytotoxity test, overall comparison on cultured cell lines; format: cell-based; settings: in words
Protocol: (1) The cytotoxity test of compound 0406-A shown in Example 1 was carried out against cultured cell lines.
Cell suspensions (5.6×10^4 cells/ml) were prepared by using the Minimum Essential Medium (MEM)-Dulbecco's medium for HEK-297, Cos-1, and Hela cells, and the RPMI 1640 medium for YAC-1 cells (all media containing 10% bovine serum). Samples (0406A, Cyclosporin and Ascomycin) were prepared by serial two-fold dilution starting from 1 mg/ml, by using the individual media. A cell suspension (180 μl) and a sample solution (20 μl) were added into each well of a 96-well microtiter plate, for culturing at 37° C. in wet 5% CO2 -95% air environment. After culturing for 96 hours, ^3 H-thymidine (0.5 μCi/well) was added into each well. The microtiter plate was incubated for 4 hours, followed by trypsin treatment of the cell lines excluding YAC-1, and the resulting cells were recovered on glass fiber filters to measure the radioactivity incorporated into the cells by means of a liquid scintillation counter. From the radioactivity (c) of a well with no addition of any sample and the radioactivity (t) of each of the wells with addition of the individual samples, the growth inhibition rate was determined by the formula […] (%). IC50 was calculated from the results.

[7] = tested on: cytotoxic T-cell (CTL) generation; test: In vitro cytotoxic T-cell activity (inhibitory effect on CTL generation induced by murine mixed lymphocyte reaction), 51Cr release from EL-4 cells; format: cell-based; settings: for Cytotoxic T-cell activity: lytic units per 10^7 effector cells
Protocol: (2) In vitro cytotoxic T-cell activity (CTL: cytotoxic T-cell) (Inhibitory effect on CTL generation, induced by murine mixed lymphocyte reaction)
A suspension solution (5.5×10^6 cells/ml; 0.9 ml) of BALB/C (H-2^d) splenocytes prepared in the same manner as in Example 2, a suspension solution (5.5×10^6 cells/ml; 0.9 ml) of C57BL/6 (H-2^b) splenocytes preliminarily treated with mitomycin C, and a sample solution (0.2 ml) were added into a 24-well multi-dish, for culturing at 37° C. under conditions of 5% CO2 -95% air for 5 days. After completion of cultivation, the cells were recovered by centrifuge, which were then suspended in the RPMI 1640 medium containing 10% bovine serum, for use as the effector cells.
EL-4 cells (H-2^b) were used as the target cells. The incubation of the EL-4 cells (10^6) with 0.1 μCi Na2^51 CrO4 at 37° C. for 3 hours promoted the ^51 Cr uptake in the cells, and subsequently, the cells were washed and the concentration was adjusted to 2×10^5 cells/ml for use as the target cells.
The determination of the cytotoxic T-cell generation was carried out as follows. The effector cell suspension (100 μl) and the target cell suspension (100 μl) were added into a 96-well round-bottom microtiter plate for cultivation at 37° C. for 4 hours, to measure ^51 Cr release in the supernatant. Then, the cytotoxic T-cell activity was calculated by the formulated below.
Cytotoxic T-cell activity =
[radioactivity of (effector cell + target cell)] -
(radioactivity of target cell alone)/
(radioactivity of target cell treated with 0.1N HCl) -
(radioactivity of target cell alone) × 100
The activity of the cytotoxic T cell was represented in lytic unit (LU). The activity in LU was represented per 10^7 effector cells, when 1 LU was designated as the number of effector cells required for 20% lysis of the 2×10^4 target cells.

Solubility = format: physicochemical
[8] = tested on: Nocardia brasiliensis IFM 0406; test: Sensitivity of Nocardia brasiliensis IFM 0406 against antibiotics; format: cell-based
Protocol: The strain was cultured in a culture medium (brain heart infusion containing 2% glucose) at 30° C. with shaking at 250 rpm for 72 hours, and the cells grown in the medium were collected by centrifuge at 3,000 rpm for 10 minutes, which were then washed twice in distilled water. Further, the cells were washed in ethanol and subsequently dried in vacuum to give the dry cells. According to Bergey's Manual of Determinative Bacteriology, the 9-th edition, Williams & Willkins, Baltimore, 1993, the amino acid composition, sugar composition and lipid composition of the dry cells were determined. Meso-diamino pimelic acid was detected by the amino acid analysis, while arabinose and galactose were detected by the sugar analysis. Also, the presence of mycolic acid was determined by the lipid analysis, and the type of the acid was Nocardia type. MK-8(H4) cycle was confirmed as a principal component of the isoprenoid quinone which is a part of the bacterial lipid, while as the trace components, MK-8(H4), MK-8(H), and MK-9(H2) were confirmed. Based onthe decomposition of adenine, casein, hypoxanthine and tyrosine and additionally on the formation patterns of acids from sugar and the antimicrobial sensitivity patterns, shown in Table 4 (Mikami & Yazawa, Susceptibility pattern of pathogenic Nocardia to some selected antimicrobial agents and their usefulness in the identification work in a clinical laboratory: BuLL. JFCC, 5: 89, 1989), the bacterial strain was identified as the species N. brasiliensis. The results of the analysis of the G+C content and DNA homology support strongly that the strain is N. brasiliensis.

[9] = in words; cited from earlier work

IC50 [1]: 0.008 µg/mL
Compound: CC[C@@H]1/C=C(\C)C[C@H](C)C[C@H](OC)[C@H]2O[C@@](O)(C(=O)C(=O)N3CCCC[C@H]3C(=O)O[C@H](/C(C)=C/[C@@H]3CC[C@@H](O)[C@H](OC)C3)[C@H](C)[C@@H](O)CC1=O)[C@H](C)C[C@@H]2OC [Ascomycin, reference compound]
CC50 at 96 h [2]: 25 µg/mL (≈ 31.6 µM) | CC50 at 96 h [3]: 58 µg/mL (≈ 73.2 µM) | CC50 at 96 h [4]: 50 µg/mL (≈ 63.1 µM) | CC50 at 96 h [5]: 13 µg/mL (≈ 16.4 µM)

IC50 [1]: 0.16 µg/mL
Compound: CCCCC(=O)OC1CC(OC(C)C(C)C(O)C(C)C(O)C(C)C2OC(=O)C=CCC(O)CC(O)CC(O)CCC(C)C(O)CC3(O)OC(CC(O)CC(OC(=O)CC(=O)O)CCCC(O)C4OC4C2C)CC(O)C3O)OC(C)C1O (stereo not drawn) [0406-A]
CC50 at 96 h [2]: > 100 µg/mL | CC50 at 96 h [3]: > 100 µg/mL | CC50 at 96 h [4]: > 100 µg/mL | CC50 at 96 h [5]: > 100 µg/mL | cytotoxity level versus commercially available immuno suppressive agents [6]: lower than that of the commercially available immuno suppressive agents | Cytotoxic T-cell activity ([7]; 126 ng/ml): 22.0 u | Cytotoxic T-cell activity ([7]; 625 ng/ml): 12.5 u | Cytotoxic T-cell activity ([7]; 2,500 ng/ml): 0.1 u | Cytotoxic T-cell activity ([7]; 10,000 ng/ml): < 0.1 u | inhibition at 0.126 µg/mL ([7]; Mus musculus, T-cell, 120 h, 126 ng/ml, read-out: Inhibition rate (cytotoxic T-cell activity)): 0% | inhibition at 0.625 µg/mL ([7]; Mus musculus, T-cell, 120 h, 625 ng/ml, read-out: Inhibition rate (cytotoxic T-cell activity)): 39.5% | inhibition at 2.5 µg/mL ([7]; Mus musculus, T-cell, 120 h, 2,500 ng/ml, read-out: Inhibition rate (cytotoxic T-cell activity)): 99.5% | inhibition at 10 µg/mL ([7]; Mus musculus, T-cell, 120 h, 10,000 ng/ml, read-out: Inhibition rate (cytotoxic T-cell activity)): > 99.5% | induction of CTL ([7]; in words, dose dependence): decreased the induction of CTL in a dose-dependent manner | Solubility (Solubility; chloroform, ethyl acetate, ether): Insoluble in chloroform, ethyl acetate and ether | Solubility (Solubility; water, methanol, ethanol, DMSO): Soluble in water, methanol, ethanol and DMSO

Compound: NC[C@H]1O[C@H](O[C@H]2[C@H](O)[C@@H](O[C@H]3O[C@H](CO)[C@@H](O)[C@H](N)[C@H]3O)[C@H](N)C[C@@H]2N)[C@H](O)[C@@H](O)[C@@H]1O [kanamycin]
Sensitivity against antibiotics [8]: negative

Compound: C[C@@H](O)[C@H]1C(=O)N2C(C(=O)O)=C(SCCN=CN)C[C@H]12 [imipenem]
Sensitivity against antibiotics [8]: negative

Compound: C=CC[C@@H]1/C=C(\C)C[C@H](C)C[C@H](OC)[C@H]2O[C@@](O)(C(=O)C(=O)N3CCCC[C@H]3C(=O)O[C@H](/C(C)=C/[C@@H]3CC[C@@H](O)[C@H](OC)C3)[C@H](C)[C@@H](O)CC1=O)[C@H](C)C[C@@H]2OC [tacrorims]
side effects [9]: deleterious in the pancreas and the kidney

Compound: NC[C@H]1O[C@H](O[C@H]2[C@H](O)[C@@H](O[C@H]3O[C@H](CO)[C@@H](O)[C@H](N)[C@H]3O)[C@H](N)C[C@@H]2N)[C@H](N)C[C@@H]1O [tobramycin]
Sensitivity against antibiotics [8]: positive

Compound: O=c1[nH]cc(F)c(=O)[nH]1 [5-FU]
Sensitivity against antibiotics [8]: negative

Source: patent publication US6090610A, “Macrolide compound 0406” (Higeta Shoyu Co., Ltd., priority 1996, dated 2000)
